Test results reported in ChEMBL document CHEMBL3745637, “New hybrid molecules with anticonvulsant and antinociceptive activity derived from 3-methyl- or 3,3-dimethyl-1-[1-oxo-1-(4-phenylpiperazin-1-yl)propan-2-yl]pyrrolidine-2,5-diones” (Bioorg Med Chem, 2016).
Calls of active or inactive are those of the source. The rule behind the calls is not given here.

Key:
Mus musculus [1] = assay: Anticonvulsant activity against Swiss mouse seizure model assessed as protection at 100 mg/kg, ip pretreated for 0.25 hrs by 6 Hz psychomotor seizure test; type: functional, organism-based
Mus musculus [2] = assay: Anticonvulsant activity in ip dosed Swiss mouse assessed as reduction in clonic seizures at 0.5 hrs by subcutaneous pentylenetetrazole seizure test; type: functional
[3] = Protective index, ratio of TD50 for neurotoxicity in ip dosed Swiss mouse to ED50 for anticonvulsant activity in ip dosed MES Swiss mouse model at 0.25 hrs; type: toxicity, organism-based; conditions: in vivo, read-out: Ratio TD50/ED50
[4] = Protective index, ratio of TD50 for neurotoxicity in ip dosed Swiss mouse to ED50 for anticonvulsant activity in ip dosed scPTZ Swiss mouse model at 0.25 hrs; type: toxicity, organism-based; conditions: in vivo, read-out: Ratio TD50/ED50
[5] = Protective index, ratio of TD50 for neurotoxicity in ip dosed Swiss mouse to ED50 for anticonvulsant activity in ip dosed Swiss mouse 6 Hz psychomotor seizure model at 0.25 hrs; type: toxicity, organism-based; conditions: in vivo, read-out: Ratio TD50/ED50
Mus musculus [6] = assay: Anticonvulsant activity in ip dosed Swiss mouse assessed as protection against maximal electroshock-induced seizures at 0.5 hrs; type: functional
[7] = Neurotoxicity in ip dosed Swiss mouse seizure model assessed as motor impairment pretreated for 0.25 hrs measured within 60 s by chimney test; type: toxicity, organism-based; conditions: in vivo
Mus musculus [8] = assay: Antinociceptive activity in ip dosed Swiss mouse assessed as reduction of formalin-induced licking at MES ED50 pretreated for 0.25 hrs measured during 20 to 25 mins; type: functional; parameters: scale not given: the % may be the effect or the level left
Mus musculus [9] = assay: Antinociceptive activity in ip dosed Swiss mouse assessed as reduction of formalin-induced licking at MES ED50 pretreated for 0.25 hrs measured during 15 to 20 mins; type: functional; parameters: scale not given: the % may be the effect or the level left
Mus musculus [10] = assay: Antinociceptive activity in ip dosed Swiss mouse assessed as reduction of formalin-induced licking at MES ED50 pretreated for 0.25 hrs measured during 1 to 5 mins; type: functional
[11] = Protective index, ratio of TD50 for neurotoxicity in ip dosed Swiss mouse to ED50 for anticonvulsant activity in ip dosed Swiss mouse 6 Hz psychomotor seizure model at 0.5 hrs; type: toxicity, organism-based; conditions: in vivo, read-out: Ratio TD50/ED50
Mus musculus [12] = assay: Anticonvulsant activity in Swiss mouse assessed as protection against maximal electroshock-induced seizures at 300 mg/kg, ip pretreated for 0.25 hrs; type: functional, organism-based
Mus musculus [13] = assay: Anticonvulsant activity in Swiss mouse assessed as reduction in clonic seizures at 100 mg/kg, ip pretreated for 0.5 hrs measured after 30 mins by subcutaneous pentylenetetrazole seizure test; type: functional, organism-based
Mus musculus [14] = assay: Anticonvulsant activity in Swiss mouse assessed as reduction in clonic seizures at 100 mg/kg, ip pretreated for 1 hr measured after 30 mins by subcutaneous pentylenetetrazole seizure test; type: functional, organism-based
Mus musculus [15] = assay: Anticonvulsant activity in Swiss mouse assessed as reduction in clonic seizures at 100 mg/kg, ip pretreated for 2 hrs measured after 30 mins by subcutaneous pentylenetetrazole seizure test; type: functional, organism-based
Mus musculus [16] = assay: Anticonvulsant activity against Swiss mouse seizure model assessed as protection at 100 mg/kg, ip pretreated for 0.5 hrs by 6 Hz psychomotor seizure test; type: functional, organism-based
Mus musculus [17] = assay: Anticonvulsant activity in ip dosed Swiss mouse assessed as prolong latency to first seizure episode pretreated for 0.25 hrs measured after 30 mins by subcutaneous pentylenetetrazole seizure test; type: functional, organism-based
Mus musculus [18] = assay: Anticonvulsant activity against ip dosed Swiss mouse seizure model assessed as protection at 0.25 hrs by 6 Hz psychomotor seizure test; type: functional
Mus musculus [19] = assay: Anticonvulsant activity in ip dosed Swiss mouse assessed as protection against maximal electroshock-induced seizures at 0.25 hrs; type: functional
Mus musculus [20] = assay: Anticonvulsant activity in ip dosed Swiss mouse assessed as reduction in clonic seizures at 0.25 hrs by subcutaneous pentylenetetrazole seizure test; type: functional
Mus musculus [21] = assay: Anticonvulsant activity against ip dosed Swiss mouse seizure model assessed as protection at 0.5 hrs by 6 Hz psychomotor seizure test; type: functional
[22] = Neurotoxicity in ip dosed Swiss mouse seizure model assessed as motor impairment pretreated for 0.5 hrs measured within 60 s by chimney test; type: toxicity, organism-based; conditions: in vivo
[23] = Protective index, ratio of TD50 for neurotoxicity in ip dosed Swiss mouse to ED50 for anticonvulsant activity in ip dosed MES Swiss mouse model at 0.5 hrs; type: toxicity, organism-based; conditions: in vivo, read-out: Ratio TD50/ED50
Mus musculus [24] = assay: Anticonvulsant activity in Swiss mouse assessed as protection against maximal electroshock-induced seizures at 300 mg/kg, ip pretreated for 0.5 hrs; type: functional, organism-based
Mus musculus [25] = assay: Anticonvulsant activity in Swiss mouse assessed as protection against maximal electroshock-induced seizures at 300 mg/kg, ip pretreated for 1 hr; type: functional, organism-based
Mus musculus [26] = assay: Anticonvulsant activity in Swiss mouse assessed as protection against maximal electroshock-induced seizures at 300 mg/kg, ip pretreated for 2 hrs; type: functional, organism-based
Mus musculus [27] = assay: Anticonvulsant activity in Swiss mouse assessed as protection against maximal electroshock-induced seizures at 100 mg/kg, ip pretreated for 0.25 hrs; type: functional, organism-based
Mus musculus [28] = assay: Anticonvulsant activity in Swiss mouse assessed as protection against maximal electroshock-induced seizures at 100 mg/kg, ip pretreated for 2 hrs; type: functional, organism-based
Mus musculus [29] = assay: Anticonvulsant activity in Swiss mouse assessed as reduction in clonic seizures at 100 mg/kg, ip pretreated for 0.25 hrs measured after 30 mins by subcutaneous pentylenetetrazole seizure test; type: functional, organism-based
Mus musculus [30] = assay: Antinociceptive activity in ip dosed Swiss mouse assessed as reduction of formalin-induced licking at MES ED50 pretreated for 0.25 hrs measured during 25 to 30 mins; type: functional; parameters: scale not given: the % may be the effect or the level left
Mus musculus [31] = assay: Antinociceptive activity in ip dosed Swiss mouse assessed as reduction of formalin-induced licking at MES ED50 pretreated for 0.25 hrs measured during 15 to 30 mins; type: functional, organism-based
Mus musculus [32] = assay: Anticonvulsant activity in Swiss mouse assessed as prolong latency to first seizure episode at 120 mg/kg pretreated for 0.25 hrs measured after 30 mins by subcutaneous pentylenetetrazole seizure test; type: functional, organism-based

| SMILES | selectivity ratio at 0.25 h [3] | selectivity ratio at 0.25 h [4] | selectivity ratio at 0.25 h [5] | TD50 at 0.25 h [7] | Activity (Mus musculus [8]) | Activity (Mus musculus [9]) | Activity (Mus musculus [10]) | Activity (Mus musculus [12]) | Activity (Mus musculus [15]) | ED50 (Mus musculus [18]) | ED50 (Mus musculus [19]) | also measured |
| --- | --- | --- | --- | --- | --- | --- | --- | --- | --- | --- | --- | --- |
| CCC(C(=O)N1CCN(c2cccc(C(F)(F)F)c2)CC1)N1C(=O)CC(C)C1=O (stereo not given) | 2.19 | 1.51 | 5.42 | 164 mg/kg | 57% | 94% | inactive | Active | inactive | 30.3 mg/kg | 75.1 mg/kg | Activity (Mus musculus [1]): Active; ED50 (Mus musculus [2]): > 130 mg/kg; ED50 (Mus musculus [6]): 75.7 mg/kg; selectivity ratio at 0.5 h [11]: 4.12; Activity (Mus musculus [13]): inactive; Activity (Mus musculus [14]): inactive; Activity (Mus musculus [16]): Active; Activity (Mus musculus [17]): Dose-dependent effect; ED50 (Mus musculus [20]): 108 mg/kg; ED50 (Mus musculus [21]): 41.2 mg/kg; TD50 at 0.5 h [22]: 170 mg/kg; selectivity ratio at 0.5 h [23]: 2.24 |
| CC(C(=O)N1CCN(c2cccc(C(F)(F)F)c2)CC1)N1C(=O)CC(C)(C)C1=O (stereo not given) | 3.73 |  | 14.7 | 425 mg/kg | 93% | 96% | 56% | Active | inactive | 29 mg/kg | 114 mg/kg | Activity (Mus musculus [24]): Active; Activity (Mus musculus [25]): Active; Activity (Mus musculus [26]): Active; Activity (Mus musculus [27]): Active; Activity (Mus musculus [28]): inactive; Activity (Mus musculus [29]): inactive; Activity (Mus musculus [30]): 98%; Activity (Mus musculus [31]): Active |
| CCC1(C)CC(=O)NC1=O (stereo not given) [ETHOSUXIMIDE] |  | 4.89 |  |  |  |  |  |  |  | > 200 mg/kg | > 500 mg/kg | Activity (Mus musculus [32]): Active |
